This note sets out measurements from US20060241172A1, “Benzodioxane and benzodioxolane derivatives and uses thereof” (Wyeth, priority 2005, published 2006).

The target in assay [1] is T1, human 5-hydroxytryptamine-2C (h5-HT2C) receptor (Homo sapiens, UniProt P28335).
T1 construct: expressed in transfected cells; host or cells: CHO (Chinese Hamster Ovary) cells; membranes
T1 sequence (P28335 33-458): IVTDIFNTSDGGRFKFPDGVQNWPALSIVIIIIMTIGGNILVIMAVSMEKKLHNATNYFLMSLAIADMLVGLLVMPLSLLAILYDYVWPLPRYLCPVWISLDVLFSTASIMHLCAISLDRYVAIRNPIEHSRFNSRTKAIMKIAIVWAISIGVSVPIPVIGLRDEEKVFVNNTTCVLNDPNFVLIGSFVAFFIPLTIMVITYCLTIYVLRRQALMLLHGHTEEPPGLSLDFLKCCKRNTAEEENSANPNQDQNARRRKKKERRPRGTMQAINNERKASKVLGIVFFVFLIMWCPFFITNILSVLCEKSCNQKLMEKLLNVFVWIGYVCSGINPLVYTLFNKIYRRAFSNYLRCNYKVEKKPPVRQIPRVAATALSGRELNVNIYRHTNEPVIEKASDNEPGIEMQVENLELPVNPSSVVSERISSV
The experiment in a line: 5-HT2C binding: [125I]DOI displacement in membranes of transfected CHO cells.

The next assay deals with T2, human 5-HT2C receptor (Homo sapiens, UniProt P28335).
T2 sequence (P28335 33-458): T1 sequence (P28335 33-458)
The experiment in a line: 5-HT2C receptor-stimulated calcium mobilization (FLIPR) in CHO cells. The assay is classed as cell-based. To be noted: for Emax: CHO, read-out: 5-HT2C Function EMax (%); for EC50: read-out: 5-HT2C Function EC50. (A change in cytosolic calcium serves as a functional read-out for many receptors and channels.)

Where [2] appears, read: read-out: 5-HT2C Binding Ki avg.

Read-outs that look alike come from different tables or passages of the source.

For orientation: Ki means the dissociation constant of the complex between target and ligand, obtained from inhibition or displacement. The term Emax denotes the greatest response seen or fitted, relative to the assay's reference. In general, EC50 refers to the concentration giving half of the maximal effect. Take `NCC1Oc2cc(F)cc(-c3ccccc3Cl)c2O1` (centres unmarked) [Compound I-84, 1-[4-(2-Chloro-phenyl)-6-fluoro-1,3-benzodioxol-2-yl]methanamine]: the Ki in assay [1] (setting [2]) is below 50 nM. Also, at human 5-HT2C receptor, the Emax stood at 80% and the EC50 was below 100 nM.

`COc1ccccc1-c1cc(F)cc2c1OC(CN)O2` (centres unmarked) [Compound I-76, 1-[6-Fluoro-4-(2-methoxyphenyl)-1,3-benzodioxol-2-yl]methanamine]: the Ki in assay [1] (setting [2]) was below 50 nM. Besides, at human 5-HT2C receptor, the Emax turned out to be 70% and the EC50 is below 100 nM.

In the case of `CC(C)NCC1COc2cccc(-c3ccccc3Cl)c2O1` (centres unmarked) [Compound I-36, N-{[8-(2-Chlorophenyl)-2,3-dihydro-1,4-benzodioxin-2-yl]methyl}propan-2-amine], the Ki in assay [1] (setting [2]) was above 200 nM. Further, the EC50 at human 5-HT2C receptor was above 500 nM.

Consider `C=CCNCC1COc2cccc(-c3ccc(Cl)cc3Cl)c2O1` (centres unmarked) [Compound I-40, N-{[8-(2,4-Dichlorophenyl)-2,3-dihydro-1,4-benzodioxin-2-yl]methyl}prop-2-en-1-amine], for which the inhibitory constant (Ki) in assay [1] (setting [2]) was above 200 nM. Also, on human 5-HT2C receptor, the Emax came out at 30% and the 50% effective concentration (EC50) was above 500 nM.

`Cc1ccccc1-c1cccc2c1OC(CN)CO2` (centres unmarked) [Compound I-3, {[8-(2-Methylphenyl)-2,3-dihydro-1,4-benzodioxin-2-yl]methyl}amine]: the inhibition constant Ki in assay [1] (setting [2]) was below 50 nM. Further, on human 5-HT2C receptor, the Emax turned out to be 60% and the concentration giving a half-maximal response (EC50) is below 100 nM.

Regarding `NCC1COc2cccc(-c3cccc(Cl)c3Cl)c2O1` (centres unmarked) [Compound I-6, {[8-(2,3-Dichlorophenyl)-2,3-dihydro-1,4-benzodioxin-2-yl]methyl}amine], the Ki in assay [1] (setting [2]) was in the range of 50 to 200 nM. On human 5-HT2C receptor, the Emax amounted to 70% and the EC50 was in the range of 100 to 500 nM.

With `Cc1cccc(-c2cccc3c2OC(CN)CO3)c1C` (centres unmarked) [Compound I-10, {[8-(2,3-Dimethylphenyl)-2,3-dihydro-1,4-benzodioxin-2-yl]methyl}amine], in assay [1] (setting [2]), the Ki was above 200 nM. Moreover, at human 5-HT2C receptor, the Emax worked out at 50% and the EC50 was 100 to 500 nM.

Consider `COc1cccc(-c2cccc3c2OC(CN)CO3)c1OC` (centres unmarked) [Compound I-9, {[8-(2,3-Dimethoxyphenyl)-2,3-dihydro-1,4-benzodioxin-2-yl]methyl}amine], for which the Ki in assay [1] (setting [2]) was below 50 nM. At human 5-HT2C receptor, the Emax was 50% and the EC50 was below 100 nM.

In the case of `Cc1ccc(C)c(-c2cccc3c2OC(CN)CO3)c1` (centres unmarked) [Compound I-11, {[8-(2,5-Dimethylphenyl)-2,3-dihydro-1,4-benzodioxin-2-yl]methyl}amine], in assay [1] (setting [2]), the Ki was above 200 nM. Besides, on human 5-HT2C receptor, the maximum response (Emax) was 60% and the concentration giving a half-maximal response (EC50) lay in the range of 100 to 500 nM.

For `Clc1ccc(-c2cccc3c2OC(CNC2CCC2)CO3)c(Cl)c1` (centres unmarked) [Compound I-45, N-{[8-(2,4-Dichlorophenyl)-2,3-dihydro-1,4-benzodioxin-2-yl]methyl}cyclobutanamine], the Ki in assay [1] (setting [2]) was above 200 nM. Further, on human 5-HT2C receptor, the Emax is 30% and the EC50 is above 500 nM.

Consider `NCC1COc2cccc(-c3cc(Cl)ccc3Cl)c2O1` (centres unmarked) [Compound I-8, {[8-(2,5-Dichlorophenyl)-2,3-dihydro-1,4-benzodioxin-2-yl]methyl}amine], for which the Ki in assay [1] (setting [2]) is below 50 nM. Besides, on human 5-HT2C receptor, the Emax was 60% and the EC50 was below 100 nM.

With `NCC1COc2cccc(-c3cc(F)ccc3F)c2O1` (centres unmarked) [Compound I-15, {[8-(2,5-Difluorophenyl)-2,3-dihydro-1,4-benzodioxin-2-yl]methyl}amine], the Ki in assay [1] (setting [2]) was below 50 nM. Also, at human 5-HT2C receptor, the Emax stood at 60% and the EC50 was below 100 nM.

Consider `COc1cccc(-c2cc(Cl)cc3c2O[C@@H](CN)CO3)c1OC` [Compound I-63, (2S)-[6-Chloro-8-(2,3-dimethoxy-phenyl)-2,3-dihydro-benzo[1,4]dioxin-2-yl]-methyl amine], for which the Ki in assay [1] (setting [2]) was below 50 nM. At human 5-HT2C receptor, the Emax worked out at 50% and the EC50 is above 500 nM.

Consider `COc1ccccc1-c1cccc2c1OC(CN)CO2` (centres unmarked) [Compound I-5, {[8-(2-Methoxyphenyl)-2,3-dihydro-1,4-benzodioxin-2-yl]methyl}amine], for which the Ki in assay [1] (setting [2]) lay within 50 to 200 nM. Moreover, on human 5-HT2C receptor, the Emax came out at 60% and the EC50 is below 100 nM.

For `CNCC1COc2cccc(-c3cccc(OC)c3OC)c2O1` (centres unmarked) [Compound I-30, {[8-(2,3-Dimethoxyphenyl)-2,3-dihydro-1,4-benzodioxin-2-yl]methyl}methylamine], the Ki in assay [1] (setting [2]) was in the range of 50 to 200 nM. Moreover, at human 5-HT2C receptor, the EC50 is above 500 nM.

`NCC1Oc2cc(F)cc(-c3ccccc3F)c2O1` (centres unmarked) [Compound I-83, 1-[4-(2-Fluoro-phenyl)-6-fluoro-1,3-benzodioxol-2-yl]methanamine]: the Ki in assay [1] (setting [2]) is below 50 nM. On human 5-HT2C receptor, the Emax came to 70% and the concentration for a half-maximal effect (EC50) was below 100 nM.

Regarding `NC[C@H]1COc2cc(Cl)cc(-c3ccccc3F)c2O1` [Compound I-59, (2S)-[6-Chloro-8-(2-fluoro-phenyl)-2,3-dihydro-benzo[1,4]dioxin-2-yl]-methylamine], the Ki in assay [1] (setting [2]) is below 50 nM. Besides, on human 5-HT2C receptor, the Emax came out at 40% and the EC50 lay in the range of 100 to 500 nM.

Turning to `NCC1Oc2cc(F)cc(-c3ccccc3C(F)(F)F)c2O1` (centres unmarked) [Compound I-82, 1-[4-(2-Trifluoromethyl-phenyl)-6-fluoro-1,3-benzodioxol-2-yl]methanamine], in assay [1] (setting [2]), the Ki was below 50 nM. For the same molecule, on human 5-HT2C receptor, the Emax came to 70% and the EC50 is below 100 nM.

As for `NCC1COc2cccc(-c3ccccc3F)c2O1` (centres unmarked) [Compound I-2, {[8-(2-Fluorophenyl)-2,3-dihydro-1,4-benzodioxin-2-yl]methyl}amine], the Ki in assay [1] (setting [2]) is below 50 nM. Also, on human 5-HT2C receptor, the Emax was 70% and the EC50 is below 100 nM.

For the molecule `C[C@]1(CN)COc2cccc(-c3ccsc3)c2O1` [Compound I-53, {[(2S)-2-Methyl-8-thien-3-yl-2,3-dihydro-1,4-benzodioxin-2-yl]methyl}amine], the Ki in assay [1] (setting [2]) is above 200 nM.

For the molecule `NCC1Oc2cc(Cl)cc(-c3cc(Cl)ccc3Cl)c2O1` (centres unmarked) [Compound I-98, [6-Chloro-4-(2,5-dichloro-phenyl)-benzo[1,3]dioxol-2-yl]-methylamine], the Ki in assay [1] (setting [2]) was below 50 nM. On human 5-HT2C receptor, the Emax was 80% and the half-maximal effective concentration (EC50) was below 100 nM.

Turning to `CNCC1COc2cccc(-c3cc(Cl)ccc3OC)c2O1` (centres unmarked) [Compound I-31, {[8-(5-Chloro-2-methoxyphenyl)-2,3-dihydro-1,4-benzodioxin-2-yl]methyl}methylamine], in assay [1] (setting [2]), the inhibition constant (Ki) is above 200 nM. Moreover, on human 5-HT2C receptor, the Emax was determined as 20% and the concentration for a half-maximal effect (EC50) is 100 to 500 nM.

Regarding `Cc1cc(Cl)ccc1-c1cc(Cl)cc2c1O[C@@H](CN)CO2` [Compound I-65, (2S)-[6-Chloro-8-(4-chloro-2-methyl-phenyl)-2,3-dihydro-benzo[1,4]dioxin-2-yl]-methylamine], in assay [1] (setting [2]), the Ki was below 50 nM.

In the case of `COc1ccc(Cl)cc1-c1cc(Cl)cc2c1OC(CN)O2` (centres unmarked) [Compound I-94, [6-Chloro-4-(2-methoxy-5-chloro-phenyl)-benzo[1,3]dioxol-2-yl]-methylamine], the Ki in assay [1] (setting [2]) was above 200 nM.

As for `C[C@]1(CN)COc2cccc(-c3cccc(Cl)c3)c2O1` [Compound I-50, {[(2S)-8-(3-Chlorophenyl)-2-methyl-2,3-dihydro-1,4-benzodioxin-2-yl]methyl}amine], the Ki in assay [1] (setting [2]) was above 200 nM.

On to `COc1ccc(OC)c(-c2cc(Cl)cc3c2OC(CN)O3)c1` (centres unmarked) [Compound I-100, [6-Chloro-4-(2,5-dimethoxy-phenyl)-benzo[1,3]dioxol-2-yl]-methylamine], for which the Ki in assay [1] (setting [2]) is above 200 nM.

Take `NC[C@H]1COc2cccc(-c3ccccc3Cl)c2O1` [Compound I-56, 1-[(2S)-8-(2-CHLOROPHENYL)-2,3-DIHYDRO-1,4-BENZODIOXIN-2-YL]METHANAMINE]: the Ki in assay [1] (setting [2]) is below 50 nM.

`CSc1ccc2c(c1)C(N1CCN(C)CC1)Cc1ccccc1S2` (centres unmarked) [Methiothepin, reference compound]: the Ki in assay [1] (reference compounds, 95% confidence interval in the next column, read-out: Ki) was 4.6 nM.

Turning to `COc1ccc(Cl)cc1-c1cc(Cl)cc2c1O[C@@H](CN)CO2` [Compound I-68, (2S)-[6-Chloro-8-(5-chloro-2-methoxy-phenyl)-2,3-dihydro-benzo[1,4]dioxin-2-yl]-methylamine], the Ki in assay [1] (setting [2]) lay within 50 to 200 nM.

As to `NCC1Oc2cc(F)cc(-c3ccc(Cl)cc3)c2O1` (centres unmarked) [Compound I-79, 1-[4-(4-Chloro-phenyl)-6-fluoro-1,3-benzodioxol-2-yl]methanamine], the Ki in assay [1] (setting [2]) lay within 50 to 200 nM.

For the molecule `NCC1Oc2cc(Cl)cc(-c3cc(F)ccc3F)c2O1` (centres unmarked) [Compound I-99, [6-Chloro-4-(2,5-difluoro-phenyl)-benzo[1,3]dioxol-2-yl]-methylamine], in assay [1] (setting [2]), the inhibitory constant (Ki) was in the range of 50 to 200 nM.

Take `Cc1cc(Cl)ccc1-c1cc(Cl)cc2c1OC(CN)O2` (centres unmarked) [Compound I-97, [6-Chloro-4-(4-chloro-2-methyl-phenyl)-benzo[1,3]dioxol-2-yl]-methylamine]: in assay [1] (setting [2]), the Ki fell in the range of 50 to 200 nM.

In the case of `Cc1ccccc1-c1c(Cl)ccc2c1O[C@@H](CN)CO2` [Compound I-72, ((2S)-7-Chloro-8-o-tolyl-2,3-dihydrobenzo[b][1,4]dioxin-2-yl)methanamine], the Ki in assay [1] (setting [2]) was below 50 nM.

Consider `COc1cccc(-c2cc(Cl)cc3c2OC(CN)O3)c1OC` (centres unmarked) [Compound I-95, [6-Chloro-4-(2,3-dimethoxy-phenyl)-benzo[1,3]dioxol-2-yl]-methylamine], for which, in assay [1] (setting [2]), the Ki lay within 50 to 200 nM.
